Experimental data published in patent US10201532B2, “Compounds and their use” (ALLECRA THERAPEUTICS GMBH, priority 2010, dated 2019).

What was measured:
[1] = tested on: KPC-2 producing K. pneumoniae (ATCC BAA-1705); assay: Synergistic broth micro-dilution MIC (checkerboard); assay type: cell-based, Klebsiella pneumoniae; details: for MIC of Cefepime in combination with BLI / MIC of Cefotaxime in combination with BLI / MIC of Ceftazidime in combination with BLI / MIC of Ceftobiprole in combination with BLI / MIC of Ertapenem in combination with BLI / MIC of Faropenem in combination with BLI / MIC of Imipenem in combination with BLI / MIC of Meropenem in combination with BLI / MIC of Aztreonam in combination with BLI: ATCC BAA-1705; for MIC: Klebsiella pneumoniae, ATCCBAA1705, read-out: MIC of BLI alone
[2] = tested on: KPC-3 expressing E. coli (J53 R6206); assay: as above; assay type: cell-based, Escherichia coli; details: for MIC: Escherichia coli, read-out: MIC of BLI alone, BLI alone
[3] = molecular target: T1, crude KPC-2 enzyme extract (Klebsiella pneumoniae, UniProt Q9F663); assay: β-Lactamase inhibitory assay with CENTA substrate; assay type: biochemical
T1 construct: enzyme extracts from KPC-2 producing and KPC-3 expressing bacterial gram negative strains were used; endogenous in cells; host or cells: KPC-2 producing gram-negative strain
T1 sequence (Q9F663 25-293 limits assumed): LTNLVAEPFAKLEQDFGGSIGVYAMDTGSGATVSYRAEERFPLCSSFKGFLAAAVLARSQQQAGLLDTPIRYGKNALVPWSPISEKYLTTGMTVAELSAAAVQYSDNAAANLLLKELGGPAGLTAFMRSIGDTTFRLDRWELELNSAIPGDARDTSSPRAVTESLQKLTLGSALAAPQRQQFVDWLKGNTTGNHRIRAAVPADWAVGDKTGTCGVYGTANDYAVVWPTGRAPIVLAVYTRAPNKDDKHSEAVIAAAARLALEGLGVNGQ
Text: (§1) The Compound-1 was subjected to β-lactamase inhibitory assay to determine IC50 and to compare that with the comparator BLI agents as described elsewhere (Bebrone et. al., Antimicrob. Agents. Chemother, 2001, 45(6): 1868-1871; Jamieson et. al, Antimicrob. Agents. Chemother, 2003, 47(5): 1652-1657). Briefly, enzyme extracts from KPC-2 producing and KPC-3 expressing bacterial gram negative strains were used to study the β-lactamase inhibitory activity and determination of IC50 using CENTA as the substrate for β-lactamase.

[4] = molecular target: crude KPC-3 enzyme extract (UniProt Q9F663, H272Y, species not given); assay: β-Lactamase inhibitory assay with CENTA substrate; assay type: biochemical; details: also headed KPC2
Text: as §1

## O=C(O)[C@H]1/C(=C/CO)O[C@@H]2CC(=O)N21 [Clavulanic acid]
[1]; BLI at 2 μg/mL
  MIC of Cefepime in combination with BLI: 64 µg/mL
  MIC of Cefotaxime in combination with BLI: 32 to 64 µg/mL
  MIC of Ceftazidime in combination with BLI: >64 µg/mL
  MIC of Ceftobiprole in combination with BLI: >64 µg/mL
  MIC of Ertapenem in combination with BLI: 32 µg/mL
  MIC of Faropenem in combination with BLI: >64 µg/mL
  MIC of Imipenem in combination with BLI: 8 to 16 µg/mL
  MIC of Meropenem in combination with BLI: 16 µg/mL
[1]; BLI at 4 μg/mL
  MIC of Aztreonam in combination with BLI: >64 µg/mL
  MIC of Cefepime in combination with BLI: 64 µg/mL
  MIC of Cefotaxime in combination with BLI: 32 to 64 µg/mL
  MIC of Ceftazidime in combination with BLI: >64 µg/mL
  MIC of Ceftobiprole in combination with BLI: >64 µg/mL
  MIC of Ertapenem in combination with BLI: 64 µg/mL
  MIC of Faropenem in combination with BLI: >64 µg/mL
  MIC of Imipenem in combination with BLI: 8 to 16 µg/mL
  MIC of Meropenem in combination with BLI: 4 to 8 µg/mL
[1]; BLI at 8 μg/mL
  MIC of Cefepime in combination with BLI: 32 µg/mL
  MIC of Cefotaxime in combination with BLI: 16 to 32 µg/mL
  MIC of Ceftazidime in combination with BLI: >64 µg/mL
  MIC of Ceftobiprole in combination with BLI: >64 µg/mL
  MIC of Imipenem in combination with BLI: 4 to 8 µg/mL
  MIC of Meropenem in combination with BLI: 4 µg/mL
[1]; BLI at 16 μg/mL
  MIC of Aztreonam in combination with BLI: >64 µg/mL
  MIC of Cefepime in combination with BLI: 32 µg/mL
  MIC of Cefotaxime in combination with BLI: 16 µg/mL
  MIC of Ceftazidime in combination with BLI: 64 µg/mL
  MIC of Ceftobiprole in combination with BLI: >64 µg/mL
  MIC of Ertapenem in combination with BLI: 32 µg/mL
  MIC of Faropenem in combination with BLI: >64 µg/mL
  MIC of Imipenem in combination with BLI: 2 µg/mL
  MIC of Meropenem in combination with BLI: 4 µg/mL
[1]; BLI at 64 μg/mL
  MIC of Aztreonam in combination with BLI: 64 µg/mL
  MIC of Cefepime in combination with BLI: 8 µg/mL
  MIC of Cefotaxime in combination with BLI: 8 µg/mL
  MIC of Ceftazidime in combination with BLI: 16 µg/mL
  MIC of Ceftobiprole in combination with BLI: 64 µg/mL
  MIC of Ertapenem in combination with BLI: 8 µg/mL
  MIC of Faropenem in combination with BLI: >64 µg/mL
  MIC of Imipenem in combination with BLI: <0.5 µg/mL
  MIC of Meropenem in combination with BLI: 2 µg/mL
[1]
  MIC: > 64 µg/mL
[2]; BLI at 2 μg/mL
  MIC of Cefepime in combination with BLI: 8 µg/mL
  MIC of Cefotaxime in combination with BLI: 4 µg/mL
  MIC of Ceftazidime in combination with BLI: 32 µg/mL
  MIC of Ceftobiprole in combination with BLI: 8 µg/mL
  MIC of Imipenem in combination with BLI: 1 µg/mL
  MIC of Meropenem in combination with BLI: 1 µg/mL
[2]; BLI at 4 μg/mL
  MIC of Cefepime in combination with BLI: 8 µg/mL
  MIC of Cefotaxime in combination with BLI: 1 µg/mL
  MIC of Ceftazidime in combination with BLI: 32 µg/mL
  MIC of Ceftobiprole in combination with BLI: 8 µg/mL
  MIC of Imipenem in combination with BLI: 1 µg/mL
  MIC of Meropenem in combination with BLI: 1 µg/mL
[2]; BLI at 8 μg/mL
  MIC of Cefepime in combination with BLI: 1 µg/mL
  MIC of Cefotaxime in combination with BLI: <0.25 µg/mL
  MIC of Ceftazidime in combination with BLI: 8 µg/mL
  MIC of Ceftobiprole in combination with BLI: 2 µg/mL
  MIC of Imipenem in combination with BLI: 0.5 µg/mL
  MIC of Meropenem in combination with BLI: 0.5 µg/mL
[2]
  MIC: > 8 µg/mL
[3]
  IC50: 330 µM
[4]
  IC50: 92 µM

## CC1(C)[C@H](C(=O)O)N2C(=O)C[C@H]2S1(=O)=O [Sulbactam]
[1]; BLI at 2 μg/mL
  MIC of Cefepime in combination with BLI: >64 µg/mL
  MIC of Cefotaxime in combination with BLI: >64 µg/mL
  MIC of Ceftazidime in combination with BLI: >64 µg/mL
  MIC of Ceftobiprole in combination with BLI: >64 µg/mL
  MIC of Imipenem in combination with BLI: 16 to 32 µg/mL
  MIC of Meropenem in combination with BLI: 32 µg/mL
[1]; BLI at 4 μg/mL
  MIC of Aztreonam in combination with BLI: >64 µg/mL
  MIC of Cefepime in combination with BLI: ≥64 µg/mL
  MIC of Cefotaxime in combination with BLI: >64 µg/mL
  MIC of Ceftazidime in combination with BLI: >64 µg/mL
  MIC of Ceftobiprole in combination with BLI: >64 µg/mL
  MIC of Ertapenem in combination with BLI: >64 µg/mL
  MIC of Faropenem in combination with BLI: >64 µg/mL
  MIC of Imipenem in combination with BLI: 16 to 32 µg/mL
  MIC of Meropenem in combination with BLI: 32 µg/mL
[1]; BLI at 8 μg/mL
  MIC of Cefepime in combination with BLI: 64 µg/mL
  MIC of Cefotaxime in combination with BLI: 64 µg/mL
  MIC of Ceftazidime in combination with BLI: >64 µg/mL
  MIC of Ceftobiprole in combination with BLI: >64 µg/mL
  MIC of Ertapenem in combination with BLI: >64 µg/mL
  MIC of Faropenem in combination with BLI: >64 µg/mL
  MIC of Imipenem in combination with BLI: 16 µg/mL
  MIC of Meropenem in combination with BLI: 32 µg/mL
[1]; BLI at 16 μg/mL
  MIC of Aztreonam in combination with BLI: >64 µg/mL
  MIC of Cefepime in combination with BLI: 64 µg/mL
  MIC of Cefotaxime in combination with BLI: 32 µg/mL
  MIC of Ceftazidime in combination with BLI: >64 µg/mL
  MIC of Ceftobiprole in combination with BLI: >64 µg/mL
  MIC of Ertapenem in combination with BLI: >64 µg/mL
  MIC of Faropenem in combination with BLI: >64 µg/mL
  MIC of Imipenem in combination with BLI: 8 µg/mL
  MIC of Meropenem in combination with BLI: 32 µg/mL
[1]; BLI at 64 μg/mL
  MIC of Aztreonam in combination with BLI: >64 µg/mL
  MIC of Cefepime in combination with BLI: 64 µg/mL
  MIC of Cefotaxime in combination with BLI: 32 µg/mL
  MIC of Ceftazidime in combination with BLI: 64 µg/mL
  MIC of Ceftobiprole in combination with BLI: >64 µg/mL
  MIC of Ertapenem in combination with BLI: 64 µg/mL
  MIC of Faropenem in combination with BLI: >64 µg/mL
  MIC of Imipenem in combination with BLI: 8 µg/mL
  MIC of Meropenem in combination with BLI: 16 µg/mL
[1]
  MIC: > 64 µg/mL
[2]; BLI at 2 μg/mL
  MIC of Cefepime in combination with BLI: 16 µg/mL
  MIC of Cefotaxime in combination with BLI: >32 µg/mL
  MIC of Ceftazidime in combination with BLI: 32 µg/mL
  MIC of Ceftobiprole in combination with BLI: 32 µg/mL
  MIC of Imipenem in combination with BLI: 4 µg/mL
  MIC of Meropenem in combination with BLI: 2 µg/mL
[2]; BLI at 4 μg/mL
  MIC of Cefepime in combination with BLI: 16 µg/mL
  MIC of Cefotaxime in combination with BLI: 16 µg/mL
  MIC of Ceftazidime in combination with BLI: 32 µg/mL
  MIC of Ceftobiprole in combination with BLI: 32 µg/mL
  MIC of Imipenem in combination with BLI: 2 µg/mL
  MIC of Meropenem in combination with BLI: 1 µg/mL
[2]; BLI at 8 μg/mL
  MIC of Cefepime in combination with BLI: 8 µg/mL
  MIC of Cefotaxime in combination with BLI: 8 µg/mL
  MIC of Ceftazidime in combination with BLI: 32 µg/mL
  MIC of Ceftobiprole in combination with BLI: 16 µg/mL
  MIC of Imipenem in combination with BLI: 2 µg/mL
  MIC of Meropenem in combination with BLI: 1 µg/mL
[2]
  MIC: > 8 µg/mL
[3]
  IC50: 1400 µM
[4]
  IC50: 235 µM
